Assay results published in US10035819B2, “PPAR agonists and methods of use thereof” (The Salk Institute for Biological Studies, priority 2014, dated 2018).
Read-outs that look alike come from different tables or passages of the source.

Biological target: T1, Human PPARδ LBD (Homo sapiens, UniProt Q03181)
T1 construct: (PPARδ amino acid 128 to C-terminus); expressed in transfected cells; host or cells: CV-1 cells
T1 sequence (Q03181 128-441 limits assumed): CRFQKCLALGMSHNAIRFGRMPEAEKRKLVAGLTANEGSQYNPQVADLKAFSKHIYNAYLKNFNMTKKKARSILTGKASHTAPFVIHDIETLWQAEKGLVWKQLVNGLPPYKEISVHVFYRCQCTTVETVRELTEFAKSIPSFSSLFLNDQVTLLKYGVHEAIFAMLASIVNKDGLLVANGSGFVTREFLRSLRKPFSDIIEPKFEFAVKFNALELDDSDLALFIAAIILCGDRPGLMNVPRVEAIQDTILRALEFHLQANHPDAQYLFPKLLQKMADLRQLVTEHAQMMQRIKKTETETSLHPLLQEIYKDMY
Experiment: PPARδ activity screen (GAL4-PPARδ LBD luciferase transactivation in CV-1 cells)
Format: cell-based
Details: Table 1, CV-1 cells, GAL4-PPARδ LBD luciferase reporter, compound 24 h
Procedure: Cell Culture and Transfection: CV-1 cells were grown in DMEM+10% charcoal stripped FCS. Cells were seeded into 384-well plates the day before transfection to give a confluency of 50-80% at transfection. A total of […] containing 0.64 micrograms pCMX-PPARDelta LBD, 0.1 micrograms pCMXβGal, 0.08 micrograms pGLMH2004 reporter and 0.02 micrograms pCMX empty vector was transfected per well using FuGene transfection reagent according to the manufacturer's instructions (Roche).
Plasmids: Human PPARδ was used to PCR amplify the PPARδ LBD. […] Ensuing fusions were verified by sequencing.
Compounds: All compounds were dissolved in DMSO and diluted 1:1000 upon addition to the cells. Compounds were tested in quadruple in concentrations ranging from 0.001 to 100 μM. […] Each compound was tested in at least two separate experiments.
Luciferase assay: Medium including test compound was aspirated and washed with PBS. 50 μl PBS including 1 mM Mg++ and Ca++ were then added to each well. The luciferase assay was performed using the LucLite kit according to the manufacturer's instructions (Packard Instruments). Light emission was quantified by counting on a Perkin Elmer Envision reader. […] Beta-galactosidase assays were performed in the microwell plates using a kit from Promega and read in a Perkin Elmer Envision reader. The beta-galactosidase data were used to normalize (transfection efficiency, cell growth etc.) the luciferase data.
Statistical Methods: The activity of a compound is calculated as fold induction compared to an untreated sample. […] EC50 values were calculated via non-linear regression using GraphPad PRISM (GraphPad Software, San Diego, Calif.).

For `O=C(O)CCCCCOc1ccccc1CN(C(=O)c1ccc(-c2ccoc2)cc1)C1CCCC1` [compound 70], the EC50 (read-out: EC50) was 127 nM.

In the case of `O=C(O)CCCCCOc1ccccc1CN(C(=O)c1ccc(-c2ccccc2)cc1)C1CCCC1` [compound 65], the EC50 (EC50 nM) is reported as 405 nM.

`O=C(O)CCCCCOc1ccccc1CN(C(=O)c1ccc(-c2cccc(C(F)(F)F)c2)cc1)C1CC1` [compound 91] gave an EC50 (EC50 nM) of 1150 nM.

For `O=C(O)CCCCCOc1ccccc1CN(C(=O)c1ccc(-c2ccc(F)cc2)cc1)C1CC1` [compound 83], the EC50 (EC50 nM) was 364 nM.

Work on `O=C(O)CCCCCOc1ccccc1CN(C(=O)c1ccc(-c2ccoc2)cc1)C1CC1` [compound 13] yielded an EC50 (read-out: EC50) of 215 nM.

In the case of `O=C(O)CCCCCOc1ccccc1CN(C(=O)c1ccc(-c2ccsc2)cc1)C1CCCC1` [compound 72], the EC50 (read-out: EC50) is reported as 29.3 nM.

With `CCC(C)N(Cc1ccccc1OCCCCCC(=O)O)C(=O)c1ccc(-c2ccoc2)cc1` (stereo not shown) [compound 38] the EC50 (EC50 nM) was 290 nM.

`CC(C)N(Cc1ccccc1OCCCCCC(=O)O)C(=O)c1ccc(-c2ccncc2)cc1` [compound 59] was tested, and the EC50 (read-out: EC50) was 2860 nM.

For `O=C(O)CCCCCOc1ccccc1CN(C(=O)c1ccc(-c2cn[nH]c2)cc1)C1CC1` [compound 11], the EC50 (read-out: EC50) was 2120 nM.

For `O=C(O)CCCCCOc1ccccc1CN(C(=O)c1ccc(-c2cccs2)cc1)C1CC1` [compound 14], the EC50 (EC50 nM) was 1800 nM.

Work on `Cc1ccc(C)c(-c2ccc(C(=O)N(Cc3ccccc3OCCCCCC(=O)O)C3CC3)cc2)c1` [compound 87] yielded an EC50 (EC50 nM) of 1150 nM.

Work on `CCC(C)N(Cc1ccccc1OCCCCCC(=O)O)C(=O)c1ccc(-c2cn[nH]c2)cc1` (stereo not shown) [compound 36] yielded an EC50 (EC50 nM) of 15400 nM.

`COc1ccc(-c2ccc(C(=O)N(Cc3ccccc3OCCCCCC(=O)O)C3CC3)cc2)cc1` [compound 80] was tested, and the EC50 (EC50 nM) was 439 nM.

Work on `CCC(C)N(Cc1ccccc1OCCCCCC(=O)O)C(=O)c1ccc(-c2cccs2)cc1` (stereo not shown) [compound 39] yielded an EC50 (EC50 nM) of 2100 nM.

`O=C(O)CCCCCOc1ccccc1CN(C(=O)c1ccc(-c2ccsc2)cc1)C1CC1` [compound 15] showed an EC50 (read-out: EC50) of 58.4 nM.

With `CCC(C)N(Cc1ccccc1OCCCCCC(=O)O)C(=O)c1ccc(-c2cccnc2)cc1` (stereo not shown) [compound 34] the EC50 (EC50 nM) was 5140 nM.

Work on `COc1cccc(-c2ccc(C(=O)N(Cc3ccccc3OCCCCCC(=O)O)C3CC3)cc2)c1` [compound 79] yielded an EC50 (EC50 nM) of 301 nM.

Compound `O=C(O)CCCCCOc1ccccc1CN(C(=O)c1ccc(-c2ccco2)cc1)C1CCCC1` [compound 69] has an EC50 (read-out: EC50) of 51.4 nM.

Compound `O=C(O)CCCCCOc1ccccc1CN(C(=O)c1ccc(-c2cccs2)cc1)C1CCCC1` [compound 71] has an EC50 (read-out: EC50) of 753 nM.

Compound `Cc1ccccc1-c1ccc(C(=O)N(Cc2ccccc2OCCCCCC(=O)O)C2CC2)cc1` [compound 75] has an EC50 (EC50 nM) of 1190 nM.

With `Cc1ccc(-c2ccc(C(=O)N(Cc3ccccc3OCCCCCC(=O)O)C3CC3)cc2)cc1` [compound 77] the EC50 (EC50 nM) was 372 nM.

`CCC(C)N(Cc1ccccc1OCCCCCC(=O)O)C(=O)c1ccc(-c2ccncc2)cc1` (stereo not shown) [compound 35] gave an EC50 (EC50 nM) of 6400 nM.

`COc1ccccc1-c1ccc(C(=O)N(Cc2ccccc2OCCCCCC(=O)O)C2CC2)cc1` [compound 78] was tested, and the EC50 (EC50 nM) was 1870 nM.

With `CCc1ccccc1-c1ccc(C(=O)N(Cc2ccccc2OCCCCCC(=O)O)C2CC2)cc1` [compound 84] the EC50 (EC50 nM) was 2500 nM.

`O=C(O)CCCCCOc1ccccc1CN(C(=O)c1ccc(-c2cccnc2)cc1)C1CC1` [compound 9] showed an EC50 (read-out: EC50) of 1960 nM.

Work on `O=C(O)CCCCCOc1ccccc1CN(C(=O)c1ccc(-c2ccccc2F)cc1)C1CC1` [compound 81] yielded an EC50 (EC50 nM) of 597 nM.

In the case of `CCCc1ccc(-c2ccc(C(=O)N(Cc3ccccc3OCCCCCC(=O)O)C3CC3)cc2)cc1` [compound 93], the EC50 (EC50 nM) is reported as 1340 nM.

Work on `CCC(C)N(Cc1ccccc1OCCCCCC(=O)O)C(=O)c1ccc(Br)cc1` (stereo not shown) [compound 32] yielded an EC50 (EC50 nM) of 611 nM.

Work on `CC(C)N(Cc1ccccc1OCCCCCC(=O)O)C(=O)c1ccc(-c2ccccc2)cc1` [compound 1] yielded an EC50 (EC50 nM) of 42 nM.

`CC(C)N(Cc1ccccc1OCCCCCC(=O)O)C(=O)c1ccc(-c2cccnc2)cc1` [compound 58] was tested, and the EC50 (EC50 nM) was 1240 nM.

With `O=C(O)CCCCCOc1ccccc1CN(C(=O)c1ccc(-c2cccc(F)c2)cc1)C1CC1` [compound 82] the EC50 (EC50 nM) was 150 nM.

Work on `CC(C)N(Cc1ccccc1OCCCCCC(=O)O)C(=O)c1ccc(-c2cn[nH]c2)cc1` [compound 60] yielded an EC50 (read-out: EC50) of 710 nM.

Work on `O=C(O)CCCCCOc1ccccc1CN(C(=O)c1ccc(-c2cccnc2)cc1)C1CCCC1` [compound 66] yielded an EC50 (read-out: EC50) of 786 nM.

`CCC(C)N(Cc1ccccc1OCCCCCC(=O)O)C(=O)c1ccc(-c2ccccc2)cc1` (stereo not shown) [compound 33] showed an EC50 (EC50 nM) of 954 nM.

`O=C(O)CCCCCOc1ccccc1CN(C(=O)c1ccc(-c2cn[nH]c2)cc1)C1CCCC1` [compound 68] was tested, and the EC50 (read-out: EC50) was 605 nM.

`CCC(C)N(Cc1ccccc1OCCCCCC(=O)O)C(=O)c1ccc(-c2ccsc2)cc1` (stereo not shown) [compound 40] gave an EC50 (EC50 nM) of 179 nM.

With `O=C(O)CCCCCOc1ccccc1CN(C(=O)c1ccc(-c2ccc(C(F)(F)F)cc2)cc1)C1CC1` [compound 92] the EC50 (EC50 nM) was 1760 nM.

In the case of `O=C(O)CCCCCOc1ccccc1CN(C(=O)c1ccc(-c2ccccc2C(F)(F)F)cc1)C1CC1` [compound 90], the EC50 (EC50 nM) is reported as 1300 nM.

For `O=C(O)CCCCCOc1ccccc1CN(C(=O)c1ccc(-c2ccncc2)cc1)C1CCCC1` [compound 67], the EC50 (read-out: EC50) was 1490 nM.

In the case of `Cc1cccc(-c2ccc(C(=O)N(Cc3ccccc3OCCCCCC(=O)O)C3CC3)cc2)c1` [compound 76], the EC50 (EC50 nM) is reported as 318 nM.

For `O=C(O)CCCCCOc1ccccc1CN(C(=O)c1ccc(-c2ccccc2)cc1)C1CC1` [compound 8], the EC50 (EC50 nM) was 115 nM.

For `Cc1cccc(-c2ccc(C(=O)N(Cc3ccccc3OCCCCCC(=O)O)C3CC3)cc2)c1C` [compound 86], the EC50 (EC50 nM) was 1300 nM.

Compound `Cc1cc(C)cc(-c2ccc(C(=O)N(Cc3ccccc3OCCCCCC(=O)O)C3CC3)cc2)c1` [compound 89] has an EC50 (EC50 nM) of 1760 nM.
